The record followed here is ChEMBL document CHEMBL1124404, “Conformationally restricted and conformationally defined tyramine analogues as inhibitors of phenylethanolamine N-methyltransferase” (J Med Chem, 1989).

The structures appear in SMILES notation.

One assay concerns the target T1, Phenylethanolamine N-methyltransferase (Bos taurus, UniProt P10938).
T1 sequence (P10938 whole entry): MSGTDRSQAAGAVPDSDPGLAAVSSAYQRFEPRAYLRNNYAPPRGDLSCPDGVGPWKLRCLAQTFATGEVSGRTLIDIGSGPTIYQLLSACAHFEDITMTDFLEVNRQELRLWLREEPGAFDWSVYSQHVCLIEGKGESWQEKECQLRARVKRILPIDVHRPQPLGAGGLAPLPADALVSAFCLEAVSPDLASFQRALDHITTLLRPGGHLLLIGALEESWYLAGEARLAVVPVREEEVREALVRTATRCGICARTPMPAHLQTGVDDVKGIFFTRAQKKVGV
Nature of the assay: The compound was tested for In vitro inhibitory activity against Phenylethanolamine N-Methyltransferase (PNMT).
Broadly, the Ki is the dissociation constant of the complex between target and ligand, obtained from inhibition or displacement. A higher Ki goes with a looser hold on the target. Consider `NCCc1cccc(O)c1`, for which the Ki stood at 1250 µM.
The compound `NCCc1ccc(O)cc1` [TYRAMINE] had a Ki of 294 µM.

Another assay addresses T1, Phenylethanolamine N-methyltransferase. Nature of the assay: In vitro inhibitory activity against bovine phenylethanolamine N-methyl-transferase.
For the compound `COc1ccc2c(c1)C1CCC(N)(C2)C1` (stereo unspecified), the Ki was found to be 389 µM.
Still for that read-out and setting: with `NC12CCC(C1)c1c(O)cccc1C2` (stereo unspecified) the figure was 3470 µM.
Compound `COc1ccc2c(c1)CCC(N)C2` (stereo unspecified) yielded a Ki of 34 µM.
The same measure, in the same setting: then `NC1CC2CC1c1ccc(O)cc12` (stereo unspecified), with 304 µM; and `NC1CC2CC1c1cccc(O)c12` (stereo unspecified), with > 10000 µM; and `N[C@@H]1CC2CC1c1c(O)cccc12` (stereo partly specified), with > 3000 µM.
Same read-out and setting: with `NC1CC2CC1c1ccccc12` (stereo unspecified) the figure was 479 µM; with `COc1ccc2c(c1)C1CC2CC1N` (stereo unspecified), > 2000 µM; with `COc1cccc2c1C1CC(N)C2C1` (stereo unspecified), > 2000 µM.
On the same count and under the same terms, with `NC1CCc2cc(O)ccc2C1` (stereo unspecified) the figure was 4.7 µM.
Take `COc1cccc2c1CC(N)CC2` (stereo unspecified): the inhibition constant (Ki) was determined as 144 µM.
In turn, `COc1cccc2c1CCC(N)C2` (stereo unspecified) showed a Ki of 157 µM.
The same measure, in the same setting: then `NC1CCc2c(O)cccc2C1` (stereo unspecified), with 21 µM; and `NCCc1ccccc1` [PHENETHYLAMINE], with 854 µM.
`NC12CCC(C1)c1ccccc1C2` (stereo unspecified) registered a Ki of 206 µM.
The same measure, in the same setting: then `COc1ccc2c(c1)CC(N)CC2` (stereo unspecified), with 228 µM; and `NC1CCc2ccccc2C1` (stereo unspecified), with 6.8 µM; and `COc1cccc2c1C1CC2CC1N` (stereo unspecified), with > 2000 µM.
On the same count and under the same terms, then `NC1CCc2cccc(O)c2C1` (stereo unspecified), with 39 µM; and `NC12CCC(C1)c1cc(O)ccc1C2` (stereo unspecified), with 111 µM.
The same measure, in the same setting: with `COc1cccc2c1C1CCC(N)(C2)C1` (stereo unspecified) the figure was 8420 µM; with `NC12CCC(C1)c1ccc(O)cc1C2` (stereo unspecified), 1270 µM; with `COc1ccc2c(c1)CC1(N)CCC2C1` (stereo unspecified), 1410 µM.

The next assay has the same target. The assay is described as follows: In vitro inhibitory activity against Phenylethanolamine N-methyl-transferase (PNMT).
Compound `NC1CCc2ccc(O)cc2C1` (stereo unspecified) showed a Ki of 76 µM.
